Test results: patent US20110142873A1 (priority 2006, published 2011)

Legend:
[1] = test system: E7-specific CD8-positive T lymphocytes; set-up: species or system C57Bl/6 mice; conditions: mouse, in vivo
[2] = test system: E7-expressing TC-1 tumors; set-up: species or system C57BL/6 mice; conditions: mouse, in vivo, sc
E7 and HspE7 = test system: E7 and HspE7; set-up: species or system C57Bl/6 female mice; conditions: mouse, in vivo
[3] = test system: E7-expressing TC-1.K tumor cells; test: Regression of large, established TC-1 tumors treated from day 28; set-up: species or system C57Bl/6 mice; conditions: mouse, in vivo

| Substance | biological activity of immune stimulant administered in the absence of HspE7 [1] | anti-tumor activity [2] | antibody response to E7 and HspE7 (E7 and HspE7) | regression of large, established tumors [3] |
| --- | --- | --- | --- | --- |
| PolyI:C | did not display this activity | no effect on tumor growth | – | – |
| PolyICLC | did not display this activity | – | did not produce an antibody response | no regression |
